In DBAASP one finds MIC data, which are given here for six compounds.

Among the test systems are Trichoderma asperellum; Rhizoctonia solani; Fusarium oxysporum; Ramulariopsis gossypii; Fusarium solani; Candida albicans; Staphylococcus aureus; Streptococcus agalactiae; Pseudomonas aeruginosa; Vibrio parahaemolyticus; Aeromonas hydrophila; Vibrio fluvialis; Vibrio alginolyticus; Escherichia coli.
What all share (assay): ≥ marks a high value that may be exact or a test limit, other limits are often not marked, values filed in µg/mL are converted to µM
Assay [1] relates to Bacillus subtilis ATCC 23857.
Assay [2] relates to Pectobacterium carotovorum.
Assay [3] deals with Xanthomonas campestris pv. citri.
Assay [4] relates to Staphylococcus aureus ATCC 25923.
In assay [5] the test system is Cryptococcus neoformans ATCC 28957.
Assay [6] has as its system Bacillus cereus ATCC 14579.
Assay [7] concerns Pseudomonas syringae pv. tabaci.
The test system of assay [8] is Candida albicans ATCC 90028.
Assay [9] has as its system Pseudomonas aeruginosa ATCC 27853.
Assay [10] concerns Escherichia coli ATCC 25922.
The subject of assay [11] is Fusarium oxysporum f.sp. vasinfectum.
For assay [12], the system named is Acinetobacter calcoaceticus.
The test system of assay [13] is Pseudomonas aeruginosa 4891.
Assay [14] concerns Candida albicans KCTC 7270.
For assay [15], the system named is Pseudomonas aeruginosa 4007.
Assay [16] has as its system Listeria monocytogenes KCTC 3710.
Assay [17] concerns Staphylococcus aureus CCARM 3518.
Assay [18] deals with Escherichia coli CCARM 1238.
Assay [19] relates to Escherichia coli CCARM 1229.
The test system of assay [20] is Staphylococcus aureus CCARM 3090.
Assay [21] relates to Salmonella typhimurium KCTC 1926.
The subject of assay [22] is Bacillus subtilis KCTC 1998.
The test system of assay [23] is Trichosporon beigelii KCTC 7707.

Values after ≈ are worked out from the molar mass of the structure shown.

Regarding `CSCC[C@H](NC(=O)[C@H](CCCCN)NC(=O)[C@H](Cc1ccc(O)cc1)NC(=O)[C@H](C)NC(=O)[C@H](CCC(=O)O)NC(=O)[C@H](CC(C)C)NC(=O)[C@H](CC(C)C)NC(=O)[C@H](CCCN=C(N)N)NC(=O)[C@H](CC(N)=O)NC(=O)[C@H](C)N)C(=O)N[C@@H](CC(C)C)C(=O)N[C@@H](CC(C)C)C(=O)N[C@@H](CCCCN)C(=O)N[C@@H](Cc1ccccc1)C(=O)N[C@@H](CC(C)C)C(=O)NCC(=O)N[C@@H](CC(N)=O)C(=O)N[C@@H](CC(C)C)C(=O)N[C@@H](CCCN=C(N)N)C(N)=O` [ANRLLEAYKMLLKFLGNLR], the MIC (in general, the least concentration at which growth counts as inhibited) in the assay with Trichoderma asperellum came to 4 µM (≈ 9.05 µg/mL); in [1], 1 µM (≈ 2.26 µg/mL); in [2], 1 µM (≈ 2.26 µg/mL); in assay [3], 4 µM (≈ 9.05 µg/mL); against Rhizoctonia solani, 4 µM (≈ 9.05 µg/mL); in [4] it was 1 µM (≈ 2.26 µg/mL). For the same compound, the MIC stood at 2.67 µM (≈ 6.04 µg/mL) in assay [5]; 4 µM (≈ 9.05 µg/mL) in the assay with Fusarium oxysporum; 2 µM (≈ 4.53 µg/mL) in the assay with Ramulariopsis gossypii; 4 µM (≈ 9.05 µg/mL) in assay [6]; 2 µM (≈ 4.53 µg/mL) against Fusarium solani; 2 µM (≈ 4.53 µg/mL) in [7]. The MIC was 4 µM (≈ 9.05 µg/mL) in assay [8], 32 µM (≈ 72.4 µg/mL) in [9], 4 µM (≈ 9.05 µg/mL) in assay [10] and 1.67 µM (≈ 3.78 µg/mL) in [11].

In the case of `CC[C@H](C)[C@H](NC(=O)[C@H](C)NC(=O)[C@H](Cc1cnc[nH]1)NC(=O)[C@@H]1CCCN1C(=O)[C@@H](NC(=O)[C@H](CC(C)C)NC(=O)[C@H](CO)NC(=O)[C@H](CC(C)C)NC(=O)[C@@H](N)Cc1ccccc1)[C@@H](C)CC)C(=O)N[C@@H](CC(N)=O)C(=O)N[C@@H](C)C(=O)N[C@H](C(=O)N[C@@H](CO)C(=O)N[C@@H](C)C(=O)N[C@@H](CC(C)C)C(=O)N[C@@H](C)C(=O)N[C@@H](CC(N)=O)C(=O)N[C@@H](Cc1cnc[nH]1)C(=O)NCC(N)=O)C(C)C` [FLSLIPHAINAVSALANHG], the MIC was 8.2 µM (≈ 15.9 µg/mL) in the assay with Candida albicans; 8.2 µM (≈ 15.9 µg/mL) against Staphylococcus aureus; 4.1 µM (≈ 7.97 µg/mL) in the assay with Streptococcus agalactiae; 32.8 µM (≈ 63.8 µg/mL) in the assay with Pseudomonas aeruginosa; 4.1 µM (≈ 7.97 µg/mL) in assay [12].

`CC[C@H](C)[C@H](NC(=O)CNC(=O)[C@H](CCC(N)=O)NC(=O)[C@H](Cc1ccccc1)NC(=O)[C@@H](NC(=O)[C@H](CCCCN)NC(=O)[C@H](CCCCN)NC(=O)[C@H](CC(C)C)NC(=O)[C@H](C)NC(=O)[C@H](CC(N)=O)NC(=O)[C@H](CC(C)C)NC(=O)CN)C(C)C)C(=O)N[C@@H](Cc1cnc[nH]1)C(=O)N[C@@H](CCC(=O)O)C(=O)N[C@@H](C)C(=O)N[C@H](C(=O)N[C@@H](CCCCN)C(=O)N[C@@H](CCCCN)C(=O)N[C@H](C(=O)N[C@@H](CC(N)=O)C(=O)N[C@@H](CC(N)=O)C(=O)N[C@@H](Cc1cnc[nH]1)C(=O)N[C@H](C(=O)N[C@@H](CCC(N)=O)C(N)=O)C(C)C)[C@@H](C)CC)[C@@H](C)CC` [GLNALKKVFQGIHEAIKKINNHVQ]: the MIC in assay [13] was 8 µM (≈ 21.6 µg/mL); in assay [14] it was no less than 32 µM; in assay [15], 2 µM (≈ 5.4 µg/mL); in [16], 8 µM (≈ 21.6 µg/mL); in assay [17], 8 µM (≈ 21.6 µg/mL); in [18] it was 4 µM (≈ 10.8 µg/mL). The MIC is 4 µM (≈ 10.8 µg/mL) in assay [19]; 8 µM (≈ 21.6 µg/mL) in assay [4]; 8 µM (≈ 21.6 µg/mL) in [20]; 4 µM (≈ 10.8 µg/mL) in assay [21]; 8 µM (≈ 21.6 µg/mL) in assay [22]; no less than 32 µM in assay [23]. In addition, the minimal inhibitory concentration (MIC) in assay [9] was determined as 2 µM (≈ 5.4 µg/mL); in [10], 4 µM (≈ 10.8 µg/mL).

As to `CSCC[C@H](NC(=O)[C@H](Cc1ccccc1)NC(=O)CNC(=O)[C@H](Cc1cnc[nH]1)NC(=O)[C@H](CC(C)C)NC(=O)[C@H](CO)NC(=O)CN)C(=O)N[C@@H](Cc1ccc(O)cc1)C(=O)N[C@@H](CCCCN)C(=O)N[C@@H](Cc1ccc(O)cc1)C(=O)N[C@@H](CC(C)C)C(=O)N[C@@H](CCCCN)C(=O)N[C@@H](CC(N)=O)C(=O)N[C@@H](CCSC)C(=O)N[C@H](C(=O)N[C@@H](CC(C)C)C(=O)N[C@H](C(=O)N[C@@H](CC(C)C)C(=O)N[C@@H](Cc1ccccc1)C(N)=O)[C@@H](C)O)C(C)C` [GSLHGFMYKYLKNMVLTLF], the MIC is 8 µM (≈ 18.1 µg/mL) with Trichoderma asperellum; 16 µM (≈ 36.2 µg/mL) in assay [1]; no less than 256 µM in assay [2]; no less than 128 µM in assay [3]; 16 µM (≈ 36.2 µg/mL) in assay [4]; 16 µM (≈ 36.2 µg/mL) in assay [5]. Also, the MIC is 16 µM (≈ 36.2 µg/mL) in the assay with Fusarium oxysporum; 4 µM (≈ 9.05 µg/mL) against Ramulariopsis gossypii; no less than 128 µM in assay [6]; no less than 32 µM in the assay on Fusarium solani; 16 µM (≈ 36.2 µg/mL) in assay [7]; 16 µM (≈ 36.2 µg/mL) in [8]. Besides, the results for the MIC in assay [9], in [10] and in [11] were 32 µM (≈ 72.4 µg/mL), 64 µM (≈ 145 µg/mL) and 8 µM (≈ 18.1 µg/mL), respectively.

For the compound `CC[C@H](C)[C@H](NC(=O)CNC(=O)[C@H](CCC(N)=O)NC(=O)[C@H](Cc1c[nH]c2ccccc12)NC(=O)[C@@H](NC(=O)[C@H](CCCCN)NC(=O)[C@H](CCCCN)NC(=O)[C@H](CC(C)C)NC(=O)[C@H](C)NC(=O)[C@H](CC(N)=O)NC(=O)[C@H](CC(C)C)NC(=O)[C@@H](N)Cc1c[nH]c2ccccc12)C(C)C)C(=O)N[C@@H](Cc1cnc[nH]1)C(=O)N[C@@H](CCC(=O)O)C(=O)N[C@@H](C)C(=O)N[C@H](C(=O)N[C@@H](CCCCN)C(=O)N[C@@H](CC(C)C)C(=O)N[C@H](C(=O)N[C@@H](Cc1c[nH]c2ccccc12)C(=O)N[C@@H](CC(N)=O)C(=O)N[C@@H](Cc1c[nH]c2ccccc12)C(=O)N[C@H](C(=O)N[C@@H](CCC(N)=O)C(N)=O)C(C)C)[C@@H](C)CC)[C@@H](C)CC` [WLNALKKVWQGIHEAIKLIWNWVQ], the MIC is no less than 64 µM in assay [13]; no less than 32 µM in assay [14]; no less than 64 µM in [15]; no less than 32 µM in assay [16]; no less than 32 µM in [17]; no less than 32 µM in [18]. In addition, the MIC is no less than 32 µM in assay [19]; 32 µM (≈ 95.2 µg/mL) in [4]; no less than 32 µM in assay [20]; 16 µM (≈ 47.6 µg/mL) in assay [21]; no less than 32 µM in assay [22]; no less than 32 µM in [23]. Also, the MIC in assay [9] and in [10] was 16 µM (≈ 47.6 µg/mL) in each case.

In the case of `CC[C@H](C)[C@H](NC(=O)[C@H](Cc1cnc[nH]1)NC(=O)[C@H](C)NC(=O)[C@@H](NC(=O)[C@H](CC(N)=O)NC(=O)[C@H](Cc1cnc[nH]1)NC(=O)[C@H](CC(C)C)NC(=O)[C@H](C)NC(=O)CNC(=O)[C@H](Cc1ccc(O)cc1)NC(=O)[C@@H](N)Cc1ccc(O)cc1)[C@@H](C)O)C(=O)N[C@H](C(=O)N[C@@H](CC(C)C)C(=O)NCC(=O)N[C@@H](CCCN=C(N)N)C(=O)O)C(C)C` [YYGALHNTAHIVLGR], the MIC in the assay on Vibrio parahaemolyticus is no less than 148 µM; against Aeromonas hydrophila, no less than 74.2 µM; against Staphylococcus aureus, greater than 148 µM; in the assay with Vibrio fluvialis it was no less than 148 µM; against Vibrio alginolyticus, 9.26 µM (≈ 15.6 µg/mL); in the assay with Escherichia coli, 74.2 µM (≈ 125 µg/mL).
